Experiments:
[1] = test system: MF HPC; assay: Viability of high-risk MF CD34+ cells by flow cytometry; format: cell-based, human; conditions: 72 hr, compared with vehicle controls
Method: (FIG. 28B) Flow cytometry-based viable cell counts (5,000 events measured) in high-risk MF samples after in vitro treatment of primary CD34^+ cells with vehicle control (DMSO) or Rebecsinib (72 hr).
Human HS5 and HS27a^45 or mouse bone marrow cells lines SL (hSCF and hIL3) and M2 (hIL3 and hG-CSF) were irradiated and then mixed at a ratio of 1:1 and incubated overnight for attachment. CD34^+ were selected from high-risk MF and sAML primary samples using magnetic beads (Miltenyi Biotec, Germany). As a control, CD34^+ cells from aged normal bone marrow (aNBM), young normal BM (yNBM) and cord blood (All Cells Inc, Alameda, CA) mononuclear cells were utilized. To establish co-cultures, 10,000-15,000 CD34^+ cells were added to SLM2 stroma in 1 ml of MYELOCULT H5100™ (STEMCELL Technologies, Vancouver, Canada). Rebecsinib or DMSO control were added at the initiation of co-culture at indicated concentrations. After one week, cells that were both attached to stroma and floating were collected, resuspended in fresh media and plated in methylcellulose (MC) H4330™ (STEMCELL Technologies) in triplicate. After 2 weeks primary colonies (more than 40 cells) were counted and individual multilineage colonies were plucked, cells resuspended and re-plated again in fresh MC. Secondary colonies were counted after another 14 days. […]

[2] = test system: sAML LSC, MF HPC, normal HSPC; assay: Clonogenic survival and replating (self-renewal) assays in stromal co-culture; format: cell-based, human
Description: (FIG. 28D, FIG. 28E) Quantification of colony formation (survival, FIG. 28D) and replating (self-renewal, FIG. 28E) of high-risk MF HPC and sAML LSC compared with cord blood (CB) and aged versus young normal bone marrow (a-NBM, y-NBM) controls treated with Rebecsinib at increasing concentrations. Bar graphs show data as mean±SEM and statistical analyses by pairwise t-test and dose-response assays show data as mean±SD and statistical analyses by one-way ANOVA.
Primary patient samples and normal bone marrow controls used for functional assays are described in Table 1. Human HS5 and HS27a^45 or mouse bone marrow cells lines SL (hSCF and hIL3) and M2 (hIL3 and hG-CSF) were irradiated and then mixed at a ratio of 1:1 and incubated overnight for attachment. […] After 2 weeks primary colonies (more than 40 cells) were counted and individual multilineage colonies were plucked, cells resuspended, and re-plated again in fresh MC. Secondary colonies were counted after another 14 days. […]
Human HS5 and HS27a^45 or mouse bone marrow cells lines SL (hSCF and hIL3) and M2 (hIL3 and hG-CSF) were irradiated and then mixed at a ratio of 1:1 and incubated overnight for attachment. […] After 2 weeks primary colonies (more than 40 cells) were counted and individual multilineage colonies were plucked, cells resuspended and re-plated again in fresh MC. Secondary colonies were counted after another 14 days. […]

[3] = test system: KG-1a AML cells; assay: KG-1a cell viability by flow cytometry; format: cell-based, human; conditions: 24 hr
Description: (FIG. 29A) Quantification of cell viability (left panel) and splicing modulation (RFP/GFP ratios, right panel) by flow cytometry analyses of the human AML cell line (KG-1a) stably transduced with a lentiviral dual-fluorescence splicing reporter vector and treated with increasing concentrations of Rebecsinib.
For generation of stably transduced splicing reporter cell lines, a previously described splicing reporter construct^31 was cloned into a lentiviral vector backbone.^52 KG-1a cells were transduced with the dual-fluorescent lentiviral splicing reporter vector, treated with various concentrations of Rebecsinib (3-fold serial dilutions from 3 μM to 4 nM) for 24 hr, washed followed by DAPI staining, and analyzed by flow cytometry for cell viability and RFP/GFP fluorescence intensity. Results were from duplicate wells of each condition. Viability of cells treated with DMSO (0.5% final concentration) was set as 100%. Nonlinear regression curve fit analysis was carried out using Prism software (GraphPad) to determine ECso values for viability and mean fluorescence intensity (MFI) of RFP and GFP.

[4] = test system: sAML LSC; assay: Serial transplantation assays of sAML LSC; format: in vivo, human cells in mice
Method: To test this, we performed serial transplantation assays of cells harvested from sAML50261 LSC engrafted mice that were treated intravenously twice weekly for two weeks with Rebecsinib at 10 mg/kg (serial transplant recipients received no further treatment). […] Thus, reductions in ADAR1p150-mediated RNA editing activity following Rebecsinib treatment correspond with a reversion to a healthy splice isoform expression profile^14 in engrafted human progenitors.
In humanized mouse models, sAML cells (CD34^+) from two unique […] patient samples that were splicing factor mutated or unmutated were utilized, including sAML50261 and sAML2008-5.^14 For in vivo efficacy and therapeutic index studies, sAML CD34^+ cells, or normal human cord blood-derived or aged bone marrow-derived HSPCs (CD34^+), were transplanted (50,000-200,000 cells per mouse) intrahepatically into neonatal Rag2^−/−γc^−/− mice, or intravenously into adult NSG-SGM3 mice (Jackson Laboratories, Bar Harbor, ME). A subset of experiments was performed with normal aged bone marrow cells that were transduced with the lentiviral ADAR1 nanoluc-GFP reporter vector prior to transplant. For transplantation into adult mice, animals were irradiated with ^137Cs at a dose of 150 cGy 24 hr before IV transplantation. After engraftment levels reached >1% human CD45^+ hematopoietic cells in the peripheral blood, animals were distributed among treatment groups for treatment with Rebecsinib or vehicle control essentially as previously described, with an increased dosing regimen of twice weekly (versus once weekly in prior studies)^14 and an optimized in vivo formulation (2% w/w EtOH, 5% w/v KOLLIPHOR HS™ 15 in 0.9% saline). For animals that received transplants of cells transduced with the lentiviral ADAR1 nanoluc-GFP reporter, mice were imaged 15 weeks after transplant on the IVIS 200, as previously described.^79 Following treatment with Rebecsinib (five intravenous doses total over a two-week period), hematopoietic tissues (peripheral blood, bone marrow, spleens) were collected and analyzed by flow cytometry as previously described.^14 For splice isoform-specific qRT-PCR or RNA-seq analyses on cells from in vivo studies, human CD34^+ LSC from bone marrows and spleens of engrafted mice were isolated by magnetic bead separation (Miltenyi Biotec).
Additional aliquots of CD34+ cells from bone marrow and/or spleens of treated and control animals were used for serial transplantation assays after Rebecsinib treatment, including engraftment studies and overall survival assays. In a separate cohort of animals, mice were treated with Fedratinib for two weeks (twice daily oral delivery at 60 mg/kg) as a positive control for modulation of ADAR1 expression and activity.^8

## CC[C@H](OC)[C@@H](C)[C@H]1O[C@@H]1[C@@H](O)[C@H](C)/C=C/C=C(\C)[C@H]1OC(=O)C[C@H](O)CC[C@@](C)(O)[C@@H](OC(C)=O)/C=C/[C@@H]1C [Rebecsinib]
[1]
  MF HPC viability: decreased MF HPC viability
[2]; 1 μM, compared with DMSO (vehicle)
  effect on normal HSPC and mature hematopoietic progeny: no significant differences
[2]; sAML LSC vs MF HPC or normal cord blood, young or aged bone marrow HPCs
  clonogenic survival and replating (self-renewal) sensitivity: greater sensitivity of secondary AML (sAML) LSC
[3]
  KG-1a AML cell survival: impaired CD34^+ KG-1a AML cell survival
[3]; Homo sapiens, CD34+ KG-1a AML cell survival and RFP to GFP reporter expression
  IC50: ~100 nM
[4]; CD34+ cells from serial transplant recipients, RNA-seq
  ADAR-208 expression after serial transplantation compared with ADAR1p110: sustained reductions in expression
[4]; sAML50261, 10 mg/kg intravenously twice weekly for two weeks (primary mice)
  frequency of hematopoietic progenitors (CD34+CD38+Lin-) in spleens of serial transplant recipients: reduced frequency of hematopoietic progenitors
[4]; splicing factor mutated sAML (2008-5)
  LSC self-renewal on serial transplantation: significantly reduced LSC self-renewal
[4]; splicing factor unmutated sAML 50261
  overall survival of serial transplant recipients: significant improvement in overall survival

Source: patent publication US20260364072A1, “METHODS FOR PROMOTING EXPANSION OF HUMAN CD34+ CELLS IN VIVO AND FOR PROMOTING NEURAL REGENERATION” (THE REGENTS OF THE UNIVERSITY OF CALIFORNIA, priority 2023, published 2026)
